Like-named read-outs stand apart in the source and are kept apart here.
What was measured:
[1] = system: multidrug resistant strain of Plasmodium yoelii Nigeriensis; test: Antimalarial activity against multidrug resistant P. yoelii in Swiss mice (4-day treatment, observed till day 28); assay type: in vivo; details: Swiss mice; for inhibition in vivo at 96 mg/kg/day / responders at 96 mg/kg/day / inhibition in vivo at 24 mg/kg/day / inhibition in vivo at 48 mg/kg/day / responders at 24 mg/kg/day / responders at 48 mg/kg/day: Plasmodium yoelii; for inhibition in vivo at 96 mg/kg/day / inhibition in vivo at 24 mg/kg/day / inhibition in vivo at 48 mg/kg/day: 96 h, read-out: % Suppression on Day 4; for inhibition in vivo at 96 mg/kg/day / inhibition in vivo at 24 mg/kg/day / inhibition in vivo at 48 mg/kg/day / % Suppression on Day 4: day 0-3, in groundnut oil; for responders at 96 mg/kg/day / responders at 24 mg/kg/day / responders at 48 mg/kg/day: 672 h, read-out: Mice alive on day-28 (converted); for responders at 96 mg/kg/day / responders at 24 mg/kg/day / responders at 48 mg/kg/day / Mice alive on day-28: day 0-3
Procedure: The antimalarial activity of the test compounds was evaluated in rodent using multidrug resistant strain of Plasmodium yoelii Nigeriensis in Swiss mice.
Random bred Swiss mice of either sex (20±2 gm) were inoculated intraperitoneally with 1×10^5 P. yoelii (MDR) parasites on day zero. Treatments with test compounds were administered to group of 5 mice each at different dose levels ranging between 12–96 mg/kg/day. Treatment was administered in groundnut oil intramuscularly and orally for 4 consecutive days (day 0–3). Blood smears from experimental mice were observed on day 4 and 7, day 10 and thereafter at regular intervals till day 28 or death of animal. Parasitaemia level on day 4 was compared with vehicle control group and percent suppression of parasitaemia in treated groups was calculated. […] The dose at which no parasitaemia develop during the observation period was reported as curative dose.

[2] = 24 mg/kg/day, oral, 24 mg/kg/day
[3] = 48 mg/kg/day, oral, 48 mg/kg/day

Structure (SMILES): C=C(c1ccccc1)C1COC2(CCC(Nc3ccc(F)cc3)CC2)OO1 (centres unmarked)
- melting point: 130 to 132 °C

Structure (SMILES): C=C(c1ccc(Cl)cc1)C1COC2(CCC(Nc3ccc4c(c3)-c3ccccc3C4)CC2)OO1 (centres unmarked)
- melting point: 166 to 168 °C

Structure (SMILES): C=C(c1ccc(OC)cc1)C1COC2(CCC(Nc3ccc(OC)cc3)CC2)OO1 (centres unmarked)
- melting point: 123 to 124 °C

Structure (SMILES): C=C(c1ccc(OC)cc1)C1COC2(CCC(Nc3ccc(Cl)cc3)CC2)OO1 (centres unmarked) [Compound 4dc, (4-Chloro-Phenyl)-{3-[1-(4-Methoxy-Phenyl)-Vinyl]-1,2,5-Trioxa-Spiro[5.5]undec-9-yl}-Amine]
- inhibition in vivo at 96 mg/kg/day ([1]; im, im): 100%
- responders at 96 mg/kg/day ([1]; im, im): 80%
- inhibition in vivo at 24 mg/kg/day ([1]; po, 24 mg/kg/day, oral): 100%
- inhibition in vivo at 48 mg/kg/day ([1]; po, 48 mg/kg/day, oral): 100%
- inhibition in vivo at 96 mg/kg/day ([1]; po, oral): 100%
- responders at 24 mg/kg/day ([1]; po, 24 mg/kg/day, oral): 80%
- responders at 48 mg/kg/day ([1]; po, 48 mg/kg/day, oral): 100%
- responders at 96 mg/kg/day ([1]; po, oral): 100%

Structure (SMILES): C=C(c1ccc(OC)cc1)C1COC2(CCC(Nc3cc(Cl)cc(Cl)c3)CC2)OO1 (centres unmarked) [Compound 4dd, (3,5-Dichloro-Phenyl)-{3-[1-(4-Methoxy-Phenyl)-Vinyl]-1,2,5-Trioxa-Spiro[5.5]undec-9-yl}-Amine]
- inhibition in vivo at 96 mg/kg/day ([1]; po, oral): 100%
- responders at 96 mg/kg/day ([1]; po, oral): 80%

Structure (SMILES): C=C(c1ccc(OC)cc1)C1COC2(CCC(Nc3cccc4ccccc34)CC2)OO1 (centres unmarked) [Compound 4df, {3-[1-(4-Methoxy-phenyl)-vinyl]-1,2,5-trioxa-spiro[5.5]undec-9-yl}-naphthalen-1-yl-amine]
- inhibition in vivo at 48 mg/kg/day ([1]; po, 48 mg/kg/day, oral): 100%
- inhibition in vivo at 96 mg/kg/day ([1]; po, oral): 100%
- responders at 48 mg/kg/day ([1]; po, 48 mg/kg/day, oral): 40%
- responders at 96 mg/kg/day ([1]; po, oral): 100%

Structure (SMILES): C=C(c1ccc(OC)cc1)C1COC2(CCC(Nc3ccccc3-c3ccccc3)CC2)OO1 (centres unmarked) [Compound 4dg, Biphenyl-2-yl-{3-[1-(4-methoxy-phenyl)-vinyl]-1,2,5-trioxa-spiro[5.5]undec-9-yl}-amine]
- inhibition in vivo at 24 mg/kg/day ([1]; po, 24 mg/kg/day, oral): 91%
- inhibition in vivo at 48 mg/kg/day ([1]; po, 48 mg/kg/day, oral): 100%
- Mice alive on day-28 [1, 2]: 1/5
- Mice alive on day-28 [1, 3]: 3/5

Structure (SMILES): C=C(c1ccc(OC)cc1)C1COC2(CCC(Nc3ccccc3-c3ccccc3)CC2)OO1 (centres unmarked) [Compound 4dh, Biphenyl-2-yl-{3-[1-(4-methoxy-phenyl)-vinyl]-1,2,5-trioxa-spiro[5.5]undec-9-yl}-amine]
- % Suppression on Day 4 [1, 2]: 100%
- Mice alive on day-28 [1, 2]: 5/5
- % Suppression on Day 4 ([1]; 48 mg/kg/day, oral): 100%
- Mice alive on day-28 [1, 3]: 5/5

Structure (SMILES): C=C(c1ccc(OC)cc1)C1COC2(CCC(Nc3cccc(C(F)(F)F)c3)CC2)OO1 (centres unmarked) [Compound 4dm, {3-[1-(4-Methoxy-Phenyl)-Vinyl]-1,2,5-Trioxa-Spiro[5.5]undec-9-yl}-(3-Trifluoromethyl-Phenyl)-Amine]
- inhibition in vivo at 96 mg/kg/day ([1]; im, im): 100%
- responders at 96 mg/kg/day ([1]; im, im): 0%
- inhibition in vivo at 24 mg/kg/day ([1]; po, 24 mg/kg/day, oral): 100%
- inhibition in vivo at 48 mg/kg/day ([1]; po, 48 mg/kg/day, oral): 100%
- inhibition in vivo at 96 mg/kg/day ([1]; po, oral): 100%
- responders at 24 mg/kg/day ([1]; po, 24 mg/kg/day, oral): 100%
- responders at 48 mg/kg/day ([1]; po, 48 mg/kg/day, oral): 100%
- responders at 96 mg/kg/day ([1]; po, oral): 100%

Structure (SMILES): C=C(c1ccc(C)cc1)C1COC2(CCC(Nc3ccccc3)CC2)OO1 (centres unmarked) [Compound 4ea, Phenyl-[3-(1-p-Tolyl-Vinyl)-1,2,5-Trioxa-Spiro[5.5]undec-9-yl]-Amine]
- inhibition in vivo at 96 mg/kg/day ([1]; im, im): 96%
- responders at 96 mg/kg/day ([1]; im, im): 0%
- inhibition in vivo at 96 mg/kg/day ([1]; po, oral): 100%
- responders at 96 mg/kg/day ([1]; po, oral): 100%

Structure (SMILES): C=C(c1ccc(C)cc1)C1COC2(CCC(Nc3ccc(OC)cc3)CC2)OO1 (centres unmarked) [Compound 4eb, (4-Methoxy-Phenyl)-[3-(1-p-Tolyl-Vinyl)-1,2,5-Trioxa-Spiro[5.5]undec-9-yl]-Amine]
- inhibition in vivo at 96 mg/kg/day ([1]; im, im): 93%
- responders at 96 mg/kg/day ([1]; im, im): 0%
- inhibition in vivo at 96 mg/kg/day ([1]; po, oral): 100%
- responders at 96 mg/kg/day ([1]; po, oral): 100%

Structure (SMILES): C=C(c1ccc(C)cc1)C1COC2(CCC(Nc3ccc(Cl)cc3)CC2)OO1 (centres unmarked) [Compound 4ec, (4-Chloro-Phenyl)-[3-(1-p-Tolyl-Vinyl)-1,2,5-Trioxa-Spiro[5.5]undec-9-yl]-Amine]
- inhibition in vivo at 96 mg/kg/day ([1]; po, oral): 100%
- responders at 96 mg/kg/day ([1]; po, oral): 100%

Structure (SMILES): C=C(c1ccc(C)cc1)C1COC2(CCC(Nc3cc(Cl)cc(Cl)c3)CC2)OO1 (centres unmarked) [Compound 4ed, (3,5-Dichloro-Phenyl)-[3-(1-Tolyl-Vinyl)-1,2,5-Trioxa-Spiro[5.5]undec-9-yl]-Amine]
- Mice alive on day-28 ([1]; 24 mg/kg/day, oral): 0/5
- % Suppression on Day 4 [1, 2]: 95%
- % Suppression on Day 4 ([1]; 48 mg/kg/day, oral): 100%
- Mice alive on day-28 [1, 3]: 4/5

Structure (SMILES): C=C(c1ccc(C)cc1)C1COC2(CCC(Nc3cc(Cl)cc(Cl)c3)CC2)OO1 (centres unmarked) [Compound 4ee, (3,5-Dichloro-Phenyl)-[3-(1-Tolyl-Vinyl)-1,2,5-Trioxa-Spiro[5.5]undec-9-yl]-Amine]
- Mice alive on day-28 ([1]; 24 mg/kg/day, oral): 0/5
- % Suppression on Day 4 [1, 2]: 81%
- % Suppression on Day 4 ([1]; 48 mg/kg/day, oral): 100%
- Mice alive on day-28 [1, 3]: 2/5

Structure (SMILES): C=C(c1ccc(C)cc1)C1COC2(CCC(Nc3cccc4ccccc34)CC2)OO1 (centres unmarked) [Compound 4eg, Naphthalen-1-yl-[3-(1-p-Tolyl-Vinyl)-1,2,5-Trioxa-Spiro[5.5]undec-9-yl]-Amine]
- inhibition in vivo at 96 mg/kg/day ([1]; po, oral): 100%
- responders at 96 mg/kg/day ([1]; po, oral): 100%

Structure (SMILES): C=C(c1ccc(C)cc1)C1COC2(CCC(Nc3ccc(-c4ccccc4)cc3)CC2)OO1 (centres unmarked) [Compound 4ej, Biphenyl-4-yl-[3-(1-p-tolyl-vinyl)-1,2,5-trioxa-spiro[5.5]undec-9-yl]-amine]
- inhibition in vivo at 96 mg/kg/day ([1]; im, im): 69%
- responders at 96 mg/kg/day ([1]; im, im): 0%
- inhibition in vivo at 48 mg/kg/day ([1]; po, 48 mg/kg/day, oral): 100%
- inhibition in vivo at 96 mg/kg/day ([1]; po, oral): 100%
- responders at 48 mg/kg/day ([1]; po, 48 mg/kg/day, oral): 40%
- responders at 96 mg/kg/day ([1]; po, oral): 100%

Structure (SMILES): C=C(c1ccc(C)cc1)C1COC2(CCC(Nc3cccc(C(F)(F)F)c3)CC2)OO1 (centres unmarked) [Compound 4en, [3-(1-p-Tolyl-vinyl)-1,2,5-trioxa-spiro[5.5]undec-9-yl]-(3-trifluoromethyl-phenyl)-amine]
- inhibition in vivo at 96 mg/kg/day ([1]; po, oral): 100%
- responders at 96 mg/kg/day ([1]; po, oral): 60%

Structure (SMILES): CCO[C@H]1O[C@@H]2O[C@@]3(C)CC[C@H]4[C@H](C)CC[C@@H]([C@H]1C)[C@@]24OO3 [β-Arteether, reference compound]
- Mice alive on day-28 ([1]; 24 mg/kg/day, oral): 1/5
- % Suppression on Day 4 ([1]; 24 mg/kg/day, oral): 100%
- Mice alive on day-28 ([1]; 48 mg/kg/day, oral): 5/5
- % Suppression on Day 4 ([1]; 48 mg/kg/day, oral): 100%
